Reference: the supplement of paper PMC10307832

Tests used:
Experiment in all cases: relative viability (nuclei count vs DMSO), 5 days (fraction); higher = more cells survive
[1] = compound: COc1cc2nc(N3CCCN(C)CC3)nc(NC3CCN(Cc4ccccc4)CC3)c2cc1OC + Cc1nc(NC(=O)N2CCC[C@H]2C(N)=O)sc1-c1ccnc(C(C)(C)C(F)(F)F)c1 [Alpelisib] (partner 2 µM)
Summary of the method: (§1)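 One day after seeding in 1536-well plates, lung cancer cell lines were dosed by pin tool. Dosing was either single-drug or a fixed anchor-drug dose plus five library-drug doses (not always all listed) in √10 steps. After 5 days, nuclei were stained in one fix-and-stain step and counted on 4× images, and relative viability is the nuclei count of treated wells over that of vehicle wells, given as the median of duplicate plates.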

[2] = compound: COc1cc2nc(N3CCCN(C)CC3)nc(NC3CCN(Cc4ccccc4)CC3)c2cc1OC + Cc1nc(Nc2ncc(C(=O)Nc3c(C)cccc3Cl)s2)cc(N2CCN(CCO)CC2)n1 [Dasatinib] (partner 0.075 µM)
Summary of the method: as §1

AZD6482 + Foretinib = compound: Cc1cc([C@@H](C)Nc2ccccc2C(=O)O)c2nc(N3CCOCC3)cc(=O)n2c1 [AZD6482] + COc1cc2c(Oc3ccc(NC(=O)C4(C(=O)Nc5ccc(F)cc5)CC4)cc3F)ccnc2cc1OCCCN1CCOCC1 [Foretinib] (partner 0.25 µM)
Summary of the method: as §1

AZD6482 + Crizotinib = compound: Cc1cc([C@@H](C)Nc2ccccc2C(=O)O)c2nc(N3CCOCC3)cc(=O)n2c1 [AZD6482] + C[C@@H](Oc1cc(-c2cnn(C3CCNCC3)c2)cnc1N)c1c(Cl)ccc(F)c1Cl [Crizotinib] (partner 1 µM)
Summary of the method: as §1

Question: LU99A was tested. Which relative viability ([1]; first compound 0.2 µM) did it give?
Answer: Its relative viability is 0.539.

Question: And the relative viability ([1]; first compound 0.6325 µM)?
Answer: The relative viability was 0.458.

Question: And the relative viability ([1]; first compound 2 µM)?
Answer: The relative viability was 0.454.

Question: What about the relative viability ([1]; first compound 6.325 µM) of the same cell line?
Answer: Its relative viability is 0.479.

Question: What about the relative viability ([2]; first compound 0.2 µM) of the same cell line?
Answer: Its relative viability is 0.588.

Question: And the relative viability ([2]; first compound 0.6325 µM)?
Answer: The relative viability was 0.552.

Question: And the relative viability ([2]; first compound 2 µM)?
Answer: The relative viability was 0.47.

Question: What about the relative viability ([2]; first compound 6.325 µM) of the same cell line?
Answer: The relative viability was 0.433.

Question: What about the relative viability (AZD6482 + Foretinib; first compound 0.08 µM) of the same cell line?
Answer: Its relative viability is 0.829.

Question: What about the relative viability (AZD6482 + Foretinib; first compound 0.253 µM) of the same cell line?
Answer: Its relative viability is 0.828.

Question: What about the relative viability (AZD6482 + Foretinib; first compound 0.8 µM) of the same cell line?
Answer: Its relative viability is 0.77.

Question: And the relative viability (AZD6482 + Foretinib; first compound 2.53 µM)?
Answer: Its relative viability is 0.65.

Question: What about the relative viability (AZD6482 + Foretinib; first compound 8 µM) of the same cell line?
Answer: Its relative viability is 0.633.

Question: What about the relative viability (AZD6482 + Crizotinib; first compound 0.08 µM) of the same cell line?
Answer: The relative viability was 0.609.

Question: And the relative viability (AZD6482 + Crizotinib; first compound 0.253 µM)?
Answer: The relative viability was 0.495.

Question: And the relative viability (AZD6482 + Crizotinib; first compound 0.8 µM)?
Answer: The relative viability was 0.591.

Question: And the relative viability (AZD6482 + Crizotinib; first compound 2.53 µM)?
Answer: Its relative viability is 0.466.

Question: What about the relative viability (AZD6482 + Crizotinib; first compound 8 µM) of the same cell line?
Answer: Its relative viability is 0.471.

Question: How did the relative viability ([1]; first compound 0.2 µM) turn out when LXF-289 was run?
Answer: Its relative viability is 1.04.

Question: And the relative viability ([1]; first compound 0.6325 µM)?
Answer: The relative viability was 0.964.

Question: And the relative viability ([1]; first compound 2 µM)?
Answer: Its relative viability is 1.06.

Question: What about the relative viability ([1]; first compound 6.325 µM) of the same cell line?
Answer: Its relative viability is 0.986.

Question: What about the relative viability ([2]; first compound 0.2 µM) of the same cell line?
Answer: The relative viability was 0.263.

Question: What about the relative viability ([2]; first compound 0.6325 µM) of the same cell line?
Answer: Its relative viability is 0.212.

Question: And the relative viability ([2]; first compound 2 µM)?
Answer: The relative viability was 0.252.

Question: And the relative viability ([2]; first compound 6.325 µM)?
Answer: Its relative viability is 0.213.

Question: What about the relative viability (AZD6482 + Foretinib; first compound 0.08 µM) of the same cell line?
Answer: The relative viability was 0.912.

Question: What about the relative viability (AZD6482 + Foretinib; first compound 0.253 µM) of the same cell line?
Answer: Its relative viability is 0.916.

Question: What about the relative viability (AZD6482 + Foretinib; first compound 0.8 µM) of the same cell line?
Answer: The relative viability was 0.977.

Question: And the relative viability (AZD6482 + Foretinib; first compound 2.53 µM)?
Answer: Its relative viability is 0.938.

Question: And the relative viability (AZD6482 + Foretinib; first compound 8 µM)?
Answer: Its relative viability is 0.831.

Question: And the relative viability (AZD6482 + Crizotinib; first compound 0.08 µM)?
Answer: Its relative viability is 0.813.

Question: What about the relative viability (AZD6482 + Crizotinib; first compound 0.253 µM) of the same cell line?
Answer: Its relative viability is 0.837.

Question: And the relative viability (AZD6482 + Crizotinib; first compound 0.8 µM)?
Answer: The relative viability was 0.898.

Question: And the relative viability (AZD6482 + Crizotinib; first compound 2.53 µM)?
Answer: Its relative viability is 0.794.

Question: And the relative viability (AZD6482 + Crizotinib; first compound 8 µM)?
Answer: The relative viability was 0.736.

Question: With NCI-H23 as the cell line, how does the relative viability ([1]; first compound 0.2 µM) read?
Answer: Its relative viability is 0.623.

Question: What about the relative viability ([1]; first compound 0.6325 µM) of the same cell line?
Answer: Its relative viability is 0.693.

Question: What about the relative viability ([1]; first compound 2 µM) of the same cell line?
Answer: The relative viability was 0.775.

Question: What about the relative viability ([1]; first compound 6.325 µM) of the same cell line?
Answer: Its relative viability is 0.675.

Question: And the relative viability ([2]; first compound 0.2 µM)?
Answer: The relative viability was 0.786.

Question: What about the relative viability ([2]; first compound 0.6325 µM) of the same cell line?
Answer: Its relative viability is 0.628.

Question: What about the relative viability ([2]; first compound 2 µM) of the same cell line?
Answer: Its relative viability is 0.859.

Question: And the relative viability ([2]; first compound 6.325 µM)?
Answer: The relative viability was 0.876.

Question: And the relative viability (AZD6482 + Foretinib; first compound 0.08 µM)?
Answer: The relative viability was 0.976.

Question: What about the relative viability (AZD6482 + Foretinib; first compound 0.253 µM) of the same cell line?
Answer: Its relative viability is 0.856.

Question: And the relative viability (AZD6482 + Foretinib; first compound 0.8 µM)?
Answer: The relative viability was 0.922.

Question: What about the relative viability (AZD6482 + Foretinib; first compound 2.53 µM) of the same cell line?
Answer: The relative viability was 0.639.

Question: And the relative viability (AZD6482 + Foretinib; first compound 8 µM)?
Answer: Its relative viability is 0.5.

Question: And the relative viability (AZD6482 + Crizotinib; first compound 0.08 µM)?
Answer: Its relative viability is 0.444.

Question: And the relative viability (AZD6482 + Crizotinib; first compound 0.253 µM)?
Answer: Its relative viability is 0.426.

Question: And the relative viability (AZD6482 + Crizotinib; first compound 0.8 µM)?
Answer: Its relative viability is 0.481.

Question: What about the relative viability (AZD6482 + Crizotinib; first compound 2.53 µM) of the same cell line?
Answer: Its relative viability is 0.369.

Question: And the relative viability (AZD6482 + Crizotinib; first compound 8 µM)?
Answer: Its relative viability is 0.417.

Question: With NCI-H522 as the cell line, how does the relative viability ([2]; first compound 0.2 µM) read?
Answer: The relative viability was 0.963.

Question: And the relative viability ([2]; first compound 0.6325 µM)?
Answer: Its relative viability is 1.15.

Question: What about the relative viability ([2]; first compound 2 µM) of the same cell line?
Answer: The relative viability was 1.02.

Question: What about the relative viability ([2]; first compound 6.325 µM) of the same cell line?
Answer: Its relative viability is 0.92.

Question: NCI-H1299 was tested. Which relative viability ([1]; first compound 0.2 µM) did it give?
Answer: Its relative viability is 1.03.

Question: And the relative viability ([1]; first compound 0.6325 µM)?
Answer: Its relative viability is 1.08.

Question: And the relative viability ([1]; first compound 2 µM)?
Answer: The relative viability was 1.06.

Question: What about the relative viability ([1]; first compound 6.325 µM) of the same cell line?
Answer: Its relative viability is 1.08.

Question: And the relative viability (AZD6482 + Foretinib; first compound 0.08 µM)?
Answer: Its relative viability is 1.06.

Question: What about the relative viability (AZD6482 + Foretinib; first compound 0.253 µM) of the same cell line?
Answer: Its relative viability is 1.13.

Question: What about the relative viability (AZD6482 + Foretinib; first compound 0.8 µM) of the same cell line?
Answer: The relative viability was 1.31.

Question: And the relative viability (AZD6482 + Foretinib; first compound 2.53 µM)?
Answer: Its relative viability is 1.11.

Question: And the relative viability (AZD6482 + Foretinib; first compound 8 µM)?
Answer: Its relative viability is 1.12.

Question: What about the relative viability (AZD6482 + Crizotinib; first compound 0.08 µM) of the same cell line?
Answer: The relative viability was 0.956.

Question: And the relative viability (AZD6482 + Crizotinib; first compound 0.253 µM)?
Answer: The relative viability was 0.946.

Question: And the relative viability (AZD6482 + Crizotinib; first compound 0.8 µM)?
Answer: The relative viability was 1.04.

Question: What about the relative viability (AZD6482 + Crizotinib; first compound 2.53 µM) of the same cell line?
Answer: The relative viability was 0.942.

Question: And the relative viability (AZD6482 + Crizotinib; first compound 8 µM)?
Answer: The relative viability was 0.989.

Question: With NCI-H1395 as the cell line, how does the relative viability ([1]; first compound 0.2 µM) read?
Answer: The relative viability was 1.1.

Question: And the relative viability ([1]; first compound 0.6325 µM)?
Answer: Its relative viability is 1.04.

Question: And the relative viability ([1]; first compound 2 µM)?
Answer: Its relative viability is 1.07.

Question: What about the relative viability ([1]; first compound 6.325 µM) of the same cell line?
Answer: Its relative viability is 0.589.

Question: What about the relative viability ([2]; first compound 0.2 µM) of the same cell line?
Answer: The relative viability was 0.459.

Question: What about the relative viability ([2]; first compound 0.6325 µM) of the same cell line?
Answer: The relative viability was 0.425.

Question: What about the relative viability ([2]; first compound 2 µM) of the same cell line?
Answer: Its relative viability is 0.384.

Question: And the relative viability ([2]; first compound 6.325 µM)?
Answer: Its relative viability is 0.357.

Question: And the relative viability (AZD6482 + Foretinib; first compound 0.08 µM)?
Answer: Its relative viability is 0.757.

Question: What about the relative viability (AZD6482 + Foretinib; first compound 0.253 µM) of the same cell line?
Answer: Its relative viability is 0.663.

Question: And the relative viability (AZD6482 + Foretinib; first compound 0.8 µM)?
Answer: The relative viability was 0.687.

Question: And the relative viability (AZD6482 + Foretinib; first compound 2.53 µM)?
Answer: Its relative viability is 0.518.

Question: What about the relative viability (AZD6482 + Foretinib; first compound 8 µM) of the same cell line?
Answer: Its relative viability is 0.555.
